PubChem BioAssay (NCI)
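A five-concentration, 48-hour dose response in 96-well plates underlies each endpoint, interpolated linearly between surrounding concentrations. GI50 marks 50% less growth. TGI denotes the concentration required for complete inhibition of growth.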

Legend:
Assay in all cases: NCI tumour cell line growth inhibition, 48 h
MDA-MB-231 breast = tested on: MDA-MB-231 breast
HS 578T breast = tested on: HS 578T breast
SF-268 CNS = tested on: SF-268 CNS
NCI-H23 lung = tested on: NCI-H23 lung
HL-60(TB) leukemia = tested on: HL-60(TB) leukemia
SNB-75 CNS = tested on: SNB-75 CNS
HT29 colon = tested on: HT29 colon
HCT-116 colon = tested on: HCT-116 colon
OVCAR-4 ovarian = tested on: OVCAR-4 ovarian
NCI-H226 lung = tested on: NCI-H226 lung
NCI-H460 lung = tested on: NCI-H460 lung
M14 melanoma = tested on: M14 melanoma
OVCAR-3 ovarian = tested on: OVCAR-3 ovarian
OVCAR-8 ovarian = tested on: OVCAR-8 ovarian
MDA-MB-435 = tested on: MDA-MB-435
NCI-H522 lung = tested on: NCI-H522 lung
RPMI-8226 leukemia = tested on: RPMI-8226 leukemia
CCRF-CEM leukemia = tested on: CCRF-CEM leukemia
DU-145 prostate = tested on: DU-145 prostate
MOLT-4 leukemia = tested on: MOLT-4 leukemia
HOP-62 NSCLC = tested on: HOP-62 NSCLC
IGROV1 ovarian = tested on: IGROV1 ovarian
UO-31 renal = tested on: UO-31 renal
SF-539 CNS = tested on: SF-539 CNS
RXF 393 renal = tested on: RXF 393 renal
KM12 colon = tested on: KM12 colon
SK-OV-3 ovarian = tested on: SK-OV-3 ovarian
BT-549 breast = tested on: BT-549 breast
A549 NSCLC = tested on: A549 NSCLC
786-0 renal = tested on: 786-0 renal
MDA-MB-468 breast = tested on: MDA-MB-468 breast
ACHN renal = tested on: ACHN renal
A498 renal = tested on: A498 renal
K-562 leukemia = tested on: K-562 leukemia
EKVX NSCLC = tested on: EKVX NSCLC
HOP-92 NSCLC = tested on: HOP-92 NSCLC
SN12C renal = tested on: SN12C renal
COLO 205 colon = tested on: COLO 205 colon
U251 CNS = tested on: U251 CNS
OVCAR-5 ovarian = tested on: OVCAR-5 ovarian
SNB-19 CNS = tested on: SNB-19 CNS
NCI/ADR-RES ovarian = tested on: NCI/ADR-RES ovarian
HCT-15 colon = tested on: HCT-15 colon
UACC-62 melanoma = tested on: UACC-62 melanoma
PC-3 prostate = tested on: PC-3 prostate
SW-620 colon = tested on: SW-620 colon
LOX IMVI melanoma = tested on: LOX IMVI melanoma
SK-MEL-5 melanoma = tested on: SK-MEL-5 melanoma
UACC-257 melanoma = tested on: UACC-257 melanoma
SK-MEL-2 melanoma = tested on: SK-MEL-2 melanoma
T-47D breast = tested on: T-47D breast
SF-295 CNS = tested on: SF-295 CNS
SK-MEL-28 melanoma = tested on: SK-MEL-28 melanoma
MCF7 breast = tested on: MCF7 breast
MALME-3M melanoma = tested on: MALME-3M melanoma
CAKI-1 renal = tested on: CAKI-1 renal
HCC-2998 colon = tested on: HCC-2998 colon
TK-10 renal = tested on: TK-10 renal

Work on `C=C1CCC2C3(C)COC(c4ccccc4)OC3CCC2(C)C1CC(Sc1ccccc1)C1=CCOC1=O` (stereo unspecified) yielded a GI50 (MDA-MB-231 breast) of 13.7 µM, a TGI (MDA-MB-231 breast) of 49 µM and a GI50 (HS 578T breast) of 37 µM. The TGI (HS 578T breast) was > 100 µM, the GI50 (SF-268 CNS) was 48.6 µM and the TGI (SF-268 CNS) was > 100 µM. For the same compound, the GI50 (NCI-H23 lung) was 25.7 µM, the TGI (NCI-H23 lung) was > 100 µM and the GI50 (HL-60(TB) leukemia) was 2.66 µM. The TGI (HL-60(TB) leukemia) was 8.66 µM, the GI50 (SNB-75 CNS) was 1.71 µM and the TGI (SNB-75 CNS) was > 100 µM. It also gave a GI50 (HT29 colon) of 5.8 µM, a TGI (HT29 colon) of 39.7 µM and a GI50 (HCT-116 colon) of 3.52 µM. The TGI (HCT-116 colon) was 15.5 µM, the GI50 (OVCAR-4 ovarian) was 25.5 µM and the TGI (OVCAR-4 ovarian) was > 100 µM. It also gave a GI50 (NCI-H226 lung) of 6.32 µM, a TGI (NCI-H226 lung) of 42.4 µM and a GI50 (NCI-H460 lung) of 17.4 µM. The TGI (NCI-H460 lung) was > 100 µM, the GI50 (M14 melanoma) was 9.87 µM and the TGI (M14 melanoma) was 35 µM. It also gave a GI50 (OVCAR-3 ovarian) of 3.66 µM, a TGI (OVCAR-3 ovarian) of 13.1 µM and a GI50 (OVCAR-8 ovarian) of 4.98 µM. The TGI (OVCAR-8 ovarian) was 29 µM, the GI50 (MDA-MB-435) was 7.09 µM and the TGI (MDA-MB-435) was 35.4 µM. For the same compound, the GI50 (NCI-H522 lung) was 10.4 µM, the TGI (NCI-H522 lung) was 22.8 µM and the GI50 (RPMI-8226 leukemia) was 2.59 µM. For the same compound, the TGI (RPMI-8226 leukemia) was 7.84 µM, the GI50 (CCRF-CEM leukemia) was 2.35 µM and the TGI (CCRF-CEM leukemia) was 8.71 µM. The GI50 (DU-145 prostate) was 18.5 µM, the TGI (DU-145 prostate) was > 100 µM and the GI50 (MOLT-4 leukemia) was 2.97 µM. The TGI (MOLT-4 leukemia) was > 100 µM, the GI50 (HOP-62 NSCLC) was 72.2 µM and the TGI (HOP-62 NSCLC) was > 100 µM. The GI50 (IGROV1 ovarian) was 17.3 µM, the TGI (IGROV1 ovarian) was > 100 µM and the GI50 (UO-31 renal) was 6.36 µM. For the same compound, the TGI (UO-31 renal) was > 100 µM, the GI50 (SF-539 CNS) was 6.82 µM and the TGI (SF-539 CNS) was 20.8 µM. It also gave a GI50 (RXF 393 renal) of 6.61 µM, a TGI (RXF 393 renal) of 43 µM and a GI50 (KM12 colon) of 11.7 µM. For the same compound, the TGI (KM12 colon) was > 100 µM, the GI50 (SK-OV-3 ovarian) was > 100 µM and the TGI (SK-OV-3 ovarian) was > 100 µM. The GI50 (BT-549 breast) was 2.17 µM, the TGI (BT-549 breast) was 9.12 µM and the GI50 (A549 NSCLC) was 13.1 µM. The TGI (A549 NSCLC) was > 100 µM, the GI50 (786-0 renal) was 14.4 µM and the TGI (786-0 renal) was 40.5 µM. For the same compound, the GI50 (MDA-MB-468 breast) was 4.8 µM, the TGI (MDA-MB-468 breast) was 26.4 µM and the GI50 (ACHN renal) was 12.7 µM. The TGI (ACHN renal) was > 100 µM, the GI50 (A498 renal) was > 100 µM and the TGI (A498 renal) was > 100 µM. The GI50 (K-562 leukemia) was 3.88 µM, the TGI (K-562 leukemia) was > 100 µM and the GI50 (EKVX NSCLC) was 5.77 µM. It also gave a TGI (EKVX NSCLC) of 95.5 µM, a GI50 (HOP-92 NSCLC) of 6.54 µM and a TGI (HOP-92 NSCLC) of 41.9 µM. The GI50 (SN12C renal) was 10.4 µM, the TGI (SN12C renal) was > 100 µM and the GI50 (COLO 205 colon) was 20.3 µM. For the same compound, the TGI (COLO 205 colon) was 46.8 µM, the GI50 (U251 CNS) was 9.9 µM and the TGI (U251 CNS) was 26.5 µM. For the same compound, the GI50 (OVCAR-5 ovarian) was 25.9 µM, the TGI (OVCAR-5 ovarian) was > 100 µM and the GI50 (SNB-19 CNS) was 45.1 µM. The TGI (SNB-19 CNS) was > 100 µM, the GI50 (NCI/ADR-RES ovarian) was 4.78 µM and the TGI (NCI/ADR-RES ovarian) was 26.4 µM. It also gave a GI50 (HCT-15 colon) of 5.12 µM, a TGI (HCT-15 colon) of 45 µM and a GI50 (UACC-62 melanoma) of 10.3 µM. For the same compound, the TGI (UACC-62 melanoma) was 27.7 µM, the GI50 (PC-3 prostate) was 5.88 µM and the TGI (PC-3 prostate) was > 100 µM. The GI50 (SW-620 colon) was 3.31 µM, the TGI (SW-620 colon) was > 100 µM and the GI50 (LOX IMVI melanoma) was 3.43 µM. It also gave a TGI (LOX IMVI melanoma) of 14.3 µM, a GI50 (SK-MEL-5 melanoma) of 10.9 µM and a TGI (SK-MEL-5 melanoma) of 23.4 µM. For the same compound, the GI50 (UACC-257 melanoma) was 33.6 µM, the TGI (UACC-257 melanoma) was > 100 µM and the GI50 (SK-MEL-2 melanoma) was 6.22 µM. The TGI (SK-MEL-2 melanoma) was 21.9 µM, the GI50 (T-47D breast) was 5.2 µM and the TGI (T-47D breast) was > 100 µM. The GI50 (SF-295 CNS) was 21.3 µM, the TGI (SF-295 CNS) was > 100 µM and the GI50 (SK-MEL-28 melanoma) was 27.2 µM. The TGI (SK-MEL-28 melanoma) was > 100 µM, the GI50 (MCF7 breast) was 3.42 µM and the TGI (MCF7 breast) was > 100 µM. For the same compound, the GI50 (MALME-3M melanoma) was 27.9 µM, the TGI (MALME-3M melanoma) was > 100 µM and the GI50 (CAKI-1 renal) was 18.6 µM. The TGI (CAKI-1 renal) was > 100 µM, the GI50 (HCC-2998 colon) was 22.3 µM and the TGI (HCC-2998 colon) was > 100 µM. For the same compound, the GI50 (TK-10 renal) was 76.1 µM and the TGI (TK-10 renal) was > 100 µM.
